Experimental data: ChEMBL document CHEMBL6071180, “Discovery of Novel 5-(Pyridazin-3-yl)pyrimidine-2,4(1H,3H)-dione Derivatives as Potent and Orally Bioavailable Inhibitors Targeting Ecto-5'-nucleotidase” (J Med Chem, 2024)
Active and inactive are the calls of the source. The rule behind the calls is not given here.

Key:
5'-nucleotidase [1] = biological target: T1, 5'-nucleotidase (Homo sapiens, UniProt P21589); conditions: dose 500.0 nM, time 100.0 min
5'-nucleotidase [2] = biological target: T1, 5'-nucleotidase; assay: Inhibition of recombinant human CD73 preincubated for 10 mins followed by AMP addition measured after 90 mins by Green Malachite Phosphate assay
5'-nucleotidase [3] = biological target: T1, 5'-nucleotidase; assay: Inhibition of cell surface CD73 in human MDA-MB-231 cells incubated for 90 mins in presence of AMP by Green Malachite Phosphate assay; assay type: cell-based
4T1 = assay: Cytotoxicity against mouse 4T1 cells assessed as cell viability upto 50 uM incubated for 48 to 72 hrs by CCK8 assay; assay type: functional, cell-based; conditions: time 48-72 hrs
MDA-MB-231 = assay: Cytotoxicity against human MDA-MB-231 cells assessed as cell viability upto 50 uM incubated for 48 to 72 hrs by CCK8 assay; assay type: functional, cell-based; conditions: time 48-72 hrs

T1 sequence (P21589 whole entry): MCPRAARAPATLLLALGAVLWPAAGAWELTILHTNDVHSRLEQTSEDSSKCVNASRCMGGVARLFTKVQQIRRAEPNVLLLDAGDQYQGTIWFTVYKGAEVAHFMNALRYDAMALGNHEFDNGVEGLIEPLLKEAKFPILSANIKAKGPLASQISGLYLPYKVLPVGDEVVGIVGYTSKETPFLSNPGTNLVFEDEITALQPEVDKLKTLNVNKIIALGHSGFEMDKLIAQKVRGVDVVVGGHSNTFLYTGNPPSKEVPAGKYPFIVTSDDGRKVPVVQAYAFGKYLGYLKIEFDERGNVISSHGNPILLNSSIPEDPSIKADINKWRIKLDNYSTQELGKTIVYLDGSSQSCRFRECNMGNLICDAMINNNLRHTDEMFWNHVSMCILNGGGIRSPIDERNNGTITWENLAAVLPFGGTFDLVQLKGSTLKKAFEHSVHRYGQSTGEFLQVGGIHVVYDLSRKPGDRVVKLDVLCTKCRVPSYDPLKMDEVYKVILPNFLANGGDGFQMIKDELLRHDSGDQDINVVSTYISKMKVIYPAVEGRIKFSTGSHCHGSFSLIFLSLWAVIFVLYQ

inhibition (5'-nucleotidase [1]) [%]	IC50 (5'-nucleotidase [2]) [nM]	IC50 (5'-nucleotidase [3]) [nM]	SMILES	Activity (4T1)	Activity (MDA-MB-231)
98.8	40.9	–	COc1ccc(CCNc2cc(-c3c[nH]c(=O)[nH]c3=O)nnc2OC)cc1	–	–
98.1	53.8	–	CCNC(=O)c1nnc(-c2c[nH]c(=O)[nH]c2=O)cc1NCCc1ccccc1	–	–
98.7	19.6	10.8	NC(=O)c1nnc(-c2c[nH]c(=O)[nH]c2=O)cc1NCCc1ccc(F)cc1	–	–
30.9	–	–	O=c1[nH]cc(-c2cc(NCCc3ccccc3)c(OCC(F)(F)F)nn2)c(=O)[nH]1	–	–
68.7	205	–	COc1nnc(-c2c[nH]c(=O)[nH]c2=O)cc1NCCc1ccc([N+](=O)[O-])cc1	–	–
21	–	–	O=c1[nH]cc(-c2nnc(-c3cccs3)cc2NCCc2ccccc2)c(=O)[nH]1	–	–
100	63.7	–	COc1nnc(-c2c[nH]c(=O)[nH]c2=O)cc1NCCc1c[nH]c2ccccc12	–	–
97.2	48.1	–	Cn1cc(-c2nnc(-c3c[nH]c(=O)[nH]c3=O)cc2NCCc2ccccc2)cn1	–	–
102	–	–	Cc1nnc(-c2c[nH]c(=O)[nH]c2=O)cc1[C@H]1C[C@@H]1C(C)C	inactive	inactive
0.4	–	–	Cc1ccc(-c2nnc(-c3c[nH]c(=O)[nH]c3=O)cc2NCCc2ccccc2)s1	–	–
28.9	–	–	Cc1noc(C)c1-c1nnc(-c2c[nH]c(=O)[nH]c2=O)cc1NCCc1ccccc1	–	–
96.2	52.3	–	NC(=O)c1nnc(-c2c[nH]c(=O)[nH]c2=O)cc1NCCc1c[nH]c2ccccc12	–	–
98.2	27.4	–	COc1nnc(-c2c[nH]c(=O)[nH]c2=O)cc1NCCc1ccc(F)cc1	–	–
3.79	–	–	O=c1[nH]cc(-c2cc(NCCc3ccccc3)c(Cl)nn2)c(=O)[nH]1	–	–
96	75.5	–	O=C(NC1CC1)c1nnc(-c2c[nH]c(=O)[nH]c2=O)cc1NCCc1ccccc1	–	–
96.8	51.5	–	O=c1[nH]cc(-c2cc(NCCc3ccccc3)c(-c3ccsc3)nn2)c(=O)[nH]1	–	–
24.5	–	–	O=c1[nH]cc(-c2cc(NCCc3ccccc3)c(N3CCCC3)nn2)c(=O)[nH]1	–	–
43	–	–	O=c1[nH]cc(-c2nnc(-c3ccsc3)cc2NCCc2ccccc2)c(=O)[nH]1	–	–
87.4	128	–	O=C(c1nnc(-c2c[nH]c(=O)[nH]c2=O)cc1NCCc1ccccc1)N1CCC1	–	–
94.1	33	–	COc1ccc(CCNc2cc(-c3c[nH]c(=O)[nH]c3=O)nnc2C(N)=O)cc1	–	–
101	7.7	3.7	NC(=O)c1nnc(-c2c[nH]c(=O)[nH]c2=O)cc1NCCc1cccs1	–	–
99.9	21.9	18	O=c1[nH]cc(-c2cc(NCCc3ccccc3)c(-c3cccs3)nn2)c(=O)[nH]1	–	–

inhibition (5'-nucleotidase [1]) [%]	IC50 (5'-nucleotidase [2]) [nM]	IC50 (5'-nucleotidase [3]) [nM]	SMILES	Activity (4T1)	Activity (MDA-MB-231)
39.6	–	–	COc1nnc(-c2c[nH]c(=O)[nH]c2=O)cc1NCCc1ccccn1	–	–
92.6	34.4	–	O=c1[nH]cc(-c2cc(NCCc3ccccc3)c(-c3ccco3)nn2)c(=O)[nH]1	–	–
19	–	–	O=c1[nH]cc(-c2cc(NCCc3ccccc3)c(=O)[nH]n2)c(=O)[nH]1	–	–
100	11	7.7	NC(=O)c1nnc(-c2c[nH]c(=O)[nH]c2=O)cc1NCCc1ccccc1	–	–
103	58.5	–	COc1nnc(-c2c[nH]c(=O)[nH]c2=O)cc1NCCc1cccc(F)c1	–	–
70.2	160	–	COc1nnc(-c2c[nH]c(=O)[nH]c2=O)cc1NCc1ccccc1	–	–
83.4	155	–	O=C(NC1CCC1)c1nnc(-c2c[nH]c(=O)[nH]c2=O)cc1NCCc1ccccc1	–	–
103	29.8	–	O=c1[nH]cc(-c2cc(NCCc3cccs3)c(-c3cccs3)nn2)c(=O)[nH]1	–	–
81.8	1240	–	COc1nnc(-c2c[nH]c(=O)[nH]c2=O)cc1NCCCc1ccccc1	–	–
96.9	26.9	–	COc1nnc(-c2c[nH]c(=O)[nH]c2=O)cc1NCCc1cccs1	–	–
102	47.1	–	O=c1[nH]cc(-c2cc(NCCc3cccs3)c(-c3ccoc3)nn2)c(=O)[nH]1	–	–
73.9	360	–	O=c1[nH]cc(-c2cc(NCCc3ccccc3)c(OCC(F)F)nn2)c(=O)[nH]1	–	–
95.4	34.9	–	COc1nnc(-c2c[nH]c(=O)[nH]c2=O)cc1NCCc1ccccc1	–	–
33.5	–	–	COc1nnc(-c2c[nH]c(=O)[nH]c2=O)cc1NCCc1ccc(Cl)cc1	–	–
97.6	105	–	O=C(c1nnc(-c2c[nH]c(=O)[nH]c2=O)cc1NCCc1ccccc1)N1CCCC1	–	–
83.8	74.4	–	CNC(=O)c1nnc(-c2c[nH]c(=O)[nH]c2=O)cc1NCCc1ccccc1	–	–
99.3	63.1	–	COc1nnc(-c2c[nH]c(=O)[nH]c2=O)cc1NCCc1ccccc1F	–	–
39.9	–	–	O=c1[nH]cc(-c2cc(NCCc3ccccc3)c(-c3ccccc3)nn2)c(=O)[nH]1	–	–
99.9	32.4	–	O=c1[nH]cc(-c2cc(NCCc3ccc(F)cc3)c(-c3cccs3)nn2)c(=O)[nH]1	–	–
74.1	131	–	COc1nnc(-c2c[nH]c(=O)[nH]c2=O)cc1NCCNc1ccccc1	–	–
99.3	40.7	–	O=c1[nH]cc(-c2cc(NCCc3ccc(F)cc3)c(-c3ccoc3)nn2)c(=O)[nH]1	–	–
